# Laboratory results from PubChem BioAssay AID1259407 (Chemical Carcinogenesis Research Information System (CCRIS), 2018).
# Activity calls are given as the source filed them. How the calls were made is not given here.
# System: CCRIS mutagenicity, Ames/micronucleus/aberration tests
# Experiment: CCRIS mutagenicity studies
smiles,measurement,setting,value
C[C@@H]1Cc2c(Cl)cc(C(=O)NC(Cc3ccccc3)C(=O)O)c(O)c2C(=O)O1 (some centres not stated),mutagenic call,"Test System: AMES SALMONELLA TYPHIMURIUM, Strain/Indicator: TA102, Metabolic Activation: RAT, LIVER, S-9, AROCLOR 1254, Method: STANDARD PLATE",inactive; negative
same,mutagenic call,"Test System: AMES SALMONELLA TYPHIMURIUM, Strain/Indicator: TA104, Metabolic Activation: NONE, Method: PREINCUBATION",inactive; negative
same,mutagenic call,"Test System: AMES SALMONELLA TYPHIMURIUM, Strain/Indicator: TA104, Metabolic Activation: RAT LIVER S-9, Method: PREINCUBATION",inactive; negative
same,mutagenic call,"Test System: AMES SALMONELLA TYPHIMURIUM, Strain/Indicator: TA1535, Metabolic Activation: HAMSTER, LIVER, S-9, AROCLOR 1254 (10 OR 30%), Method: PREINCUBATION",inactive; negative
same,mutagenic call,"Test System: AMES SALMONELLA TYPHIMURIUM, Strain/Indicator: TA1535, Metabolic Activation: HAMSTER, LIVER, S-9, AROCLOR 1254, Method: PREINCUBATION",inactive; negative
same,mutagenic call,"Test System: AMES SALMONELLA TYPHIMURIUM, Strain/Indicator: TA1535, Metabolic Activation: MOUSE KIDNEY S-9, NADP OR ARACHIDONIC ACID (10%), Method: MICROMETHOD",active; positive
same,mutagenic call,"Test System: AMES SALMONELLA TYPHIMURIUM, Strain/Indicator: TA1535, Metabolic Activation: MOUSE LIVER S-9 (10%), Method: MICROMETHOD",inactive; negative
same,mutagenic call,"Test System: AMES SALMONELLA TYPHIMURIUM, Strain/Indicator: TA1535, Metabolic Activation: NONE, Method: STANDARD PLATE",inactive; negative
same,mutagenic call,"Test System: AMES SALMONELLA TYPHIMURIUM, Strain/Indicator: TA1535, Metabolic Activation: RAT LIVER S-9, AROCLOR 1254 (10%), Method: MICROMETHOD",inactive; negative
same,mutagenic call,"Test System: AMES SALMONELLA TYPHIMURIUM, Strain/Indicator: TA1535, Metabolic Activation: RAT LIVER S-9, Method: PREINCUBATION",inactive; negative
same,mutagenic call,"Test System: AMES SALMONELLA TYPHIMURIUM, Strain/Indicator: TA1535, Metabolic Activation: RAT, LIVER, S-9, AROCLOR 1254 (10 OR 30%), Method: PREINCUBATION",inactive; negative
same,mutagenic call,"Test System: AMES SALMONELLA TYPHIMURIUM, Strain/Indicator: TA1535, Metabolic Activation: RAT, LIVER, S-9, AROCLOR 1254, Method: PREINCUBATION",inactive; negative
same,mutagenic call,"Test System: AMES SALMONELLA TYPHIMURIUM, Strain/Indicator: TA1535, Metabolic Activation: RAT, LIVER, S-9, AROCLOR 1254, Method: STANDARD PLATE",inactive; negative
same,mutagenic call,"Test System: AMES SALMONELLA TYPHIMURIUM, Strain/Indicator: TA1537, Metabolic Activation: NONE, Method: PREINCUBATION",inactive; negative
same,mutagenic call,"Test System: AMES SALMONELLA TYPHIMURIUM, Strain/Indicator: TA1537, Metabolic Activation: NONE, Method: STANDARD PLATE",inactive; negative
same,mutagenic call,"Test System: AMES SALMONELLA TYPHIMURIUM, Strain/Indicator: TA1537, Metabolic Activation: RAT LIVER S-9, Method: PREINCUBATION",inactive; negative
same,mutagenic call,"Test System: AMES SALMONELLA TYPHIMURIUM, Strain/Indicator: TA1537, Metabolic Activation: RAT, LIVER, S-9, AROCLOR 1254, Method: STANDARD PLATE",inactive; negative
same,mutagenic call,"Test System: AMES SALMONELLA TYPHIMURIUM, Strain/Indicator: TA1538, Metabolic Activation: MOUSE KIDNEY S-9, NADP OR ARACHIDONIC ACID (10%), Method: MICROMETHOD",active; positive
same,mutagenic call,"Test System: AMES SALMONELLA TYPHIMURIUM, Strain/Indicator: TA1538, Metabolic Activation: MOUSE LIVER S-9 (10%), Method: MICROMETHOD",inactive; negative
same,mutagenic call,"Test System: AMES SALMONELLA TYPHIMURIUM, Strain/Indicator: TA1538, Metabolic Activation: NONE, Method: PREINCUBATION",inactive; negative
same,mutagenic call,"Test System: AMES SALMONELLA TYPHIMURIUM, Strain/Indicator: TA1538, Metabolic Activation: NONE, Method: STANDARD PLATE",inactive; negative
same,mutagenic call,"Test System: AMES SALMONELLA TYPHIMURIUM, Strain/Indicator: TA1538, Metabolic Activation: RAT LIVER S-9, AROCLOR 1254 (10%), Method: MICROMETHOD",inactive; negative
same,mutagenic call,"Test System: AMES SALMONELLA TYPHIMURIUM, Strain/Indicator: TA1538, Metabolic Activation: RAT LIVER S-9, Method: PREINCUBATION",inactive; negative
same,mutagenic call,"Test System: AMES SALMONELLA TYPHIMURIUM, Strain/Indicator: TA1538, Metabolic Activation: RAT, LIVER, S-9, AROCLOR 1254, Method: STANDARD PLATE",inactive; negative
same,mutagenic call,"Test System: CHINESE HAMSTER V-79, Strain/Indicator: V-79(HPRT)/6-THIOGUANINE, Metabolic Activation: NONE",inactive; negative
same,mutagenic call,"Test System: CHINESE HAMSTER V-79, Strain/Indicator: V-79(HPRT)/6-THIOGUANINE, Metabolic Activation: RAT LIVER S-9",inactive; negative
same,mutagenic call,"Test System: Chinese hamster lung cells, Strain/Indicator: V79 (HPRT)/6-Thioguanine, Metabolic Activation: None, Method: Standard plate",active; positive (weak)
same,mutagenic call,"Test System: Chinese hamster lung cells, Strain/Indicator: V79 (HPRT)/6-Thioguanine, Metabolic Activation: Rat, Kidney, S-9 (phenobarbital/beta-naphthoflavone), Method: Standard plate",active; positive (weak)
same,mutagenic call,"Test System: MOUSE LYMPHOMA, Strain/Indicator: L5178Y (TK+/TK-), Metabolic Activation: NONE, Method: SUSPENSION/PLATE",inactive; negative
same,mutagenic call,"Test System: MOUSE LYMPHOMA, Strain/Indicator: L5178Y (TK+/TK-), Metabolic Activation: RAT, LIVER, S-9, AROCLOR 1254, Method: SUSPENSION/PLATE",inactive; negative
same,mutagenic call,"Test System: Mouse lymphoma cells, Strain/Indicator: L5178Y (tk+/tk-), Metabolic Activation: None, Method: Microtiter",active; positive (weak)
same,mutagenic call,"Test System: Mouse lymphoma cells, Strain/Indicator: L5178Y (tk+/tk-), Metabolic Activation: Rat, Kidney, S-9 (phenobarbital/beta-naphthoflavone), Method: Microtiter",active; positive (weak)
same,mutagenic call,"Test System: UDS HUMAN INFANT UROTHELIAL CELLS, Strain/Indicator: THY INCORP, Metabolic Activation: NONE, Method: AUTORADIOGRAPHY",inactive; negative
same,mutagenic call,"Test System: UDS HUMAN UROTHELIAL CELLS, Strain/Indicator: THY INCORP, Metabolic Activation: NONE, Method: AUTORADIOGRAPHY",active; positive
same,mutagenic call,"Test System: UDS HUMAN UROTHELIAL CELLS, Strain/Indicator: THYMIDINE INCORPORATION, Metabolic Activation: NONE, Method: AUTORADIOGRAPHY",active; positive
same,mutagenic call,"Test System: UDS PORCINE PRIMARY BLADDER EPITHELIAL CELL, Strain/Indicator: THY INCORP, Metabolic Activation: NONE, Method: AUTORADIOGRAPHY",active; positive
same,mutagenic call,"Test System: UDS RODENT PRIMARY CELLS, Metabolic Activation: NONE, Method: AUTORADIOGRAPHY (DNA REPAIR)",inactive; negative
